The values that follow come from PubChem BioAssay AID330 (DTP/NCI, 2004).

This test has as its system P388 leukemia ip, CD2F1 mice, survival T/C. Nature of the test: NCI In Vivo Anticancer Drug Screen. Data for tumor model P388 Leukemia (intraperitoneal) in CD2F1 (CDF1) mice. The following applies: endpoint: median survival time, higher = longer survival. A digest of the protocol:
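Mice carrying the transplanted tumor received test compound or vehicle. Survival was recorded in each group, and the value is the treated-group measurement divided by that of the vehicle-treated control group.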

Where [1] appears, read: dose: 50.0 mg/kg/injection, schedule: Q01DX005 (ip), vehicle: Klucel (hydroxypropylcellulose) (HPC).
[2] abbreviates: dose: 100.0 mg/kg/injection, schedule: Q01DX005 (ip), vehicle: Klucel (hydroxypropylcellulose) (HPC).
The mark [3] stands for this setting: dose: 25.0 mg/kg/injection, schedule: Q01DX009 (ip), vehicle: Klucel (hydroxypropylcellulose) (HPC).
Where [4] appears, read: dose: 50.0 mg/kg/injection, schedule: Q01DX009 (ip), vehicle: Klucel (hydroxypropylcellulose) (HPC).
Where [5] appears, read: dose: 50.0 mg/kg/injection, schedule: Q01DX005 (ip), vehicle: saline with Tween-80.
Where [6] appears, read: dose: 100.0 mg/kg/injection, schedule: Q01DX005 (ip), vehicle: saline with Tween-80.
Setting [7] is: dose: 200.0 mg/kg/injection, schedule: Q01DX005 (ip), vehicle: saline with Tween-80.
Setting [8] is: dose: 60.0 mg/kg/injection, schedule: Q01DX005 (ip), vehicle: saline with Tween-80.
The mark [9] stands for this setting: dose: 120.0 mg/kg/injection, schedule: Q01DX005 (ip), vehicle: saline with Tween-80.
The mark [10] stands for this setting: dose: 50.0 mg/kg/injection, schedule: Q01DX009 (ip), vehicle: saline with Tween-80.
[11] abbreviates: dose: 25.0 mg/kg/injection, schedule: Q01DX005 (ip), vehicle: saline.

“And” between values parts separate entries of the source, which are not always exact repeats. Equal entries are not always repeated. Toxic doses and inconclusive results are not listed.

In the case of `Cc1ccc(S(=O)(=O)NC(=O)N2CCc3ccccc32)cc1`, the T/C runs as follows: under setting [1], 105 % of control; under setting [2], 105 % of control; (dose: 200.0 mg/kg/injection, schedule: Q01DX005 (ip), vehicle: Klucel (hydroxypropylcellulose) (HPC)) 93 % of control.
Consider `COC(=O)C1(C)CCCC2(C)C1CCC13C=C(C(C)C)C(CC1C(=O)O)CC23` (centres undefined), for which the T/C reads like this: (dose: 100.0 mg/kg/injection, schedule: Q04DX003 (ip), vehicle: saline with Tween-80) 91 % of control; (dose: 200.0 mg/kg/injection, schedule: Q04DX003 (ip), vehicle: saline with Tween-80) 100 % of control.
As for `CCOC(=O)NC(=S)c1ccc[nH]1`, the T/C (dose: 12.5 mg/kg/injection, schedule: Q01DX009 (ip), vehicle: Klucel (hydroxypropylcellulose) (HPC)) is 95 % of control; the T/C under setting [3] is 87 % of control; the T/C under setting [4] is 95 % of control and 98 % of control.
`O=C(CSC(=S)N1CCCCC1)c1ccccc1`: the T/C runs as follows: (dose: 12.5 mg/kg/injection, schedule: Q01DX009 (ip), vehicle: distilled water + Tween-80) 95 % of control; (dose: 25.0 mg/kg/injection, schedule: Q01DX009 (ip), vehicle: distilled water + Tween-80) 101 % of control; (dose: 50.0 mg/kg/injection, schedule: Q01DX009 (ip), vehicle: distilled water + Tween-80) 100 % of control; (dose: 100.0 mg/kg/injection, schedule: Q01DX009 (ip), vehicle: distilled water + Tween-80) 101 % of control; (dose: 200.0 mg/kg/injection, schedule: Q01DX009 (ip), vehicle: distilled water + Tween-80) 99 % of control.
In the case of `C/C(N=NC(=S)N1CC2CCC(CC2)C1)=C1\C=CC=CN1O`, the T/C by setting is: under setting [5], 105 % of control; under setting [6], 98 % of control; under setting [7], 101 % of control.
`NC(=O)N/N=C1/C=CC2(CC=CCC2)CC1` (centres undefined): the T/C is 90 % of control (dose: 100.0 mg/kg/injection, schedule: Q01DX001 (ip), vehicle: Klucel (hydroxypropylcellulose) (HPC)); 104 % of control (dose: 200.0 mg/kg/injection, schedule: Q01DX001 (ip), vehicle: Klucel (hydroxypropylcellulose) (HPC)); 90 % of control (dose: 400.0 mg/kg/injection, schedule: Q01DX001 (ip), vehicle: Klucel (hydroxypropylcellulose) (HPC)).
As to `COC(=O)c1cccc2cccc(C(=O)N(C)CCN(C)C)c12`, the T/C under setting [8] was 97 % of control and the T/C under setting [9] was 95 % of control.
Turning to `CC1(C)NC2Cc3c([nH]c4ccccc34)C3(C)CCC1CC23` (centres undefined), the T/C was 94 % of control (dose: 12.5 mg/kg/injection, schedule: Q01DX005 (ip), vehicle: Klucel (hydroxypropylcellulose) (HPC)); 94 % of control (dose: 25.0 mg/kg/injection, schedule: Q01DX005 (ip), vehicle: Klucel (hydroxypropylcellulose) (HPC)); 89 % of control under setting [1]; 108 % of control under setting [2].
Consider `COc1cccc2c1C(=O)c1c(O)c3c(c(O)c1C2=O)C[C@@](O)(/C(CO)=N/NC(=O)c1ccc(Cl)c(Cl)c1)C[C@@H]3OC1CC(NC(=S)Nc2ccc(F)cc2)C(O)C(C)O1` (some centres undefined), for which the T/C is, setting by setting: (dose: 0.1 mg/kg/injection, schedule: Q01DX009 (ip), vehicle: water) 99 % of control; (dose: 0.2 mg/kg/injection, schedule: Q01DX009 (ip), vehicle: water) 113 % of control; (dose: 0.4 mg/kg/injection, schedule: Q01DX009 (ip), vehicle: water) 109 % of control; (dose: 0.8 mg/kg/injection, schedule: Q01DX009 (ip), vehicle: water) 111 % of control; (dose: 12.5 mg/kg/injection, schedule: Q01DX009 (ip), vehicle: water) 94 % of control; (dose: 25.0 mg/kg/injection, schedule: Q01DX009 (ip), vehicle: water) 91 % of control and 94 % of control. Further, the T/C is 91 % of control (dose: 50.0 mg/kg/injection, schedule: Q01DX009 (ip), vehicle: water) and 92 % of control (dose: 100.0 mg/kg/injection, schedule: Q01DX009 (ip), vehicle: water).
For `c1ccc2sc(-c3ccncc3)nc2c1`, the T/C under setting [10] is 102 % of control; the T/C (dose: 100.0 mg/kg/injection, schedule: Q01DX009 (ip), vehicle: saline with Tween-80) is 99 % of control; the T/C (dose: 200.0 mg/kg/injection, schedule: Q01DX009 (ip), vehicle: saline with Tween-80) is 108 % of control.
For the compound `COc1ccc2sc3c(C)ccc(NCCN(C)C)c3c(=O)c2c1`, the T/C under setting [10] is 115 % of control.
For the compound `N=C1CCCS1`, the T/C runs as follows: under setting [11], 115 % of control; (dose: 100.0 mg/kg/injection, schedule: Q01DX005 (ip), vehicle: saline) 150 % of control.
For the compound `Cn1cccc([N+](=O)[O-])c1=O`, the T/C was 105 % of control and 109 % of control (dose: 5.0 mg/kg/injection, schedule: Q01DX009 (ip), vehicle: saline); 101 % of control and 108 % of control (dose: 10.0 mg/kg/injection, schedule: Q01DX009 (ip), vehicle: saline); 113 % of control and 114 % of control (dose: 12.5 mg/kg/injection, schedule: Q01DX009 (ip), vehicle: saline); 102 % of control and 110 % of control (dose: 20.0 mg/kg/injection, schedule: Q01DX009 (ip), vehicle: saline); 100 % of control and 107 % of control (dose: 25.0 mg/kg/injection, schedule: Q01DX009 (ip), vehicle: saline); 100 % of control (dose: 40.0 mg/kg/injection, schedule: Q01DX009 (ip), vehicle: Klucel (hydroxypropylcellulose) (HPC)). Also, the T/C (dose: 40.0 mg/kg/injection, schedule: Q01DX009 (ip), vehicle: saline) is 105 % of control and the T/C (dose: 60.0 mg/kg/injection, schedule: Q01DX009 (ip), vehicle: Klucel (hydroxypropylcellulose) (HPC)) was 104 % of control.
Consider `COc1ccc2sc3c(C)ccc(NCC4CCCN5CCCCC45)c3c(=O)c2c1` (centres undefined), for which the T/C under setting [5] is 95 % of control, the T/C under setting [6] was 90 % of control and the T/C under setting [7] is 90 % of control.
Consider `NNC(=O)CNc1ccc(F)c(Cl)c1`, for which the T/C runs as follows: (dose: 15.0 mg/kg/injection, schedule: Q01DX005 (ip), vehicle: saline with Tween-80) 99 % of control; (dose: 30.0 mg/kg/injection, schedule: Q01DX005 (ip), vehicle: saline with Tween-80) 96 % of control; under setting [8], 94 % of control and 97 % of control; under setting [9], 104 % of control.
For `CNC(=S)c1cccc(-c2ccccn2)n1`, the T/C by setting is: (dose: 12.5 mg/kg/injection, schedule: Q04DX003 (ip), vehicle: Klucel (hydroxypropylcellulose) (HPC)) 104 % of control; (dose: 25.0 mg/kg/injection, schedule: Q04DX003 (ip), vehicle: Klucel (hydroxypropylcellulose) (HPC)) 113 % of control; (dose: 50.0 mg/kg/injection, schedule: Q04DX003 (ip), vehicle: Klucel (hydroxypropylcellulose) (HPC)) 108 % of control and 91 % of control.
Regarding `CN1[C@@H]2CC[C@H]1CC(O)(c1ccccc1)C2` (some centres undefined), the T/C by setting is: (dose: 12.5 mg/kg/injection, schedule: Q01DX005 (ip), vehicle: saline) 94 % of control; under setting [11], 96 % of control; under setting [5], 99 % of control; (dose: 50.0 mg/kg/injection, schedule: Q01DX005 (ip), vehicle: saline) 92 % of control.
Take `CC(=O)OC1CCC2(C)C(=CCC3C2CCC2(C)C(OC(C)=O)/C(=C/C(=O)O)CC32)C1` (centres undefined): the T/C under setting [3] is 94 % of control; the T/C under setting [4] is 97 % of control; the T/C (dose: 100.0 mg/kg/injection, schedule: Q01DX009 (ip), vehicle: Klucel (hydroxypropylcellulose) (HPC)) was 97 % of control; the T/C (dose: 200.0 mg/kg/injection, schedule: Q01DX009 (ip), vehicle: Klucel (hydroxypropylcellulose) (HPC)) is 90 % of control.
Turning to `Cc1ccc(S(=O)(=O)OC(C)c2[nH]c(=O)n(C3CCCO3)c(=O)c2F)cc1` (centres undefined), the T/C is, setting by setting: under setting [5], 99 % of control; under setting [6], 91 % of control; under setting [7], 93 % of control.
For the compound `CN=C(N)N/N=C(\C)c1ccc2ccccc2c1`, the T/C runs as follows: (dose: 12.5 mg/kg/injection, schedule: Q04DX002 (ip), vehicle: saline) 103 % of control; (dose: 25.0 mg/kg/injection, schedule: Q04DX002 (ip), vehicle: saline) 101 % of control; (dose: 50.0 mg/kg/injection, schedule: Q04DX002 (ip), vehicle: saline) 112 % of control.
In the case of `C=CC(CO)N1CC1` (centres undefined), the T/C by setting is: (dose: 0.78 mg/kg/injection, schedule: Q01DX009 (ip), vehicle: saline) 108 % of control; (dose: 1.56 mg/kg/injection, schedule: Q01DX009 (ip), vehicle: saline) 108 % of control; (dose: 3.13 mg/kg/injection, schedule: Q01DX009 (ip), vehicle: saline) 108 % of control.
